Where two headings read alike, the source gives them in different places. Each block holds one compound with its values, some of them ahead of it. *1 amine or outer side, *2 acyl side, *3 side chain or, on linkers, in order; H or OH if unused. Where a SMILES comes first, the peptide text is derived from it. Where no end group is shown, it is not given here. [ ]: non-standard residue; d: D form. γGlu = O=C(O)[C@H](CCC(=O)[*:2])N[*:1]; Cya = N[C@@H](CS(=O)(=O)O)C(=O)O; Cit = NC(=O)NCCC[C@H](N)C(=O)O
Target: HLA-A*02:01 (Homo sapiens, UniProt P04439, D140Y/D185E/D98H/E176V/E277Q/G131W/G231S/I119V/I121R/I166T/I218V/L300P/L318F/N151K/N90K/P208A/P217A/Q86G/Q94H/R138H/R169H/T345S)
Test: HLA-peptide competition binding assay, A*02:01
[1] = post-translationally modified insulin peptide, competition binding assay, a dash indicates IC50 >40,000 nM, read-out: A*02:01 binding (IC50 nM) Modified
[2] = read-out: IC50 nM, target assay A*02:01
[3] = read-out: A*02:01 binding (IC50 nM) WT
[4] = unmodified (wild type) insulin-derived peptide, radiolabeled ligand competition, purified MHC, two-day incubation, three or more independent experiments, read-out: A*02:01 binding, WT
[5] = unmodified (WT) insulin peptide, competition binding assay, a dash indicates IC50 >40,000 nM, read-out: A*02:01 binding (IC50 nM) WT

Compound: CC(C)C[C@H](NC(=O)[C@H](C)NC(=O)[C@H](CCC(=O)O)NC(=O)[C@@H](NC(=O)[C@H](CC(C)C)NC(=O)[C@H](Cc1c[nH]cn1)NC(=O)[C@H](CO)NC(=O)CNC(=O)[C@@H](N)CS(=O)(=O)O)C(C)C)C(=O)O [BGSHLVEAL] (H-[Cya]GSHLVEAL-OH; N-terminus and C-terminus assumed)
- IC50 [1]: > 40000 nM

Compound: HLVEALYLVC
- IC50 [3]: 692 nM

Compound: CC(C)C[C@H](NC(=O)[C@H](Cc1c[nH]cn1)NC(=O)[C@H](CCC(N)=O)NC(=O)[C@H](CC(N)=O)NC(=O)[C@@H](NC(=O)[C@@H](N)Cc1ccccc1)C(C)C)C(=O)N[C@@H](CS(=O)(=O)O)C(=O)NCC(=O)N[C@@H](CO)C(=O)O [FVNQHLBGS] (H-FVNQHL[Cya]GS-OH; N-terminus and C-terminus assumed)
- IC50 [1]: > 40000 nM

Compound: LALEGSLQKR
- IC50 [4]: > 40000 nM

Compound: PKTRREAED [PKTRREAED]
- IC50 [5]: > 40000 nM

Compound: C[C@@H](O)[C@H](NC(=O)[C@H](Cc1ccc(O)cc1)NC(=O)[C@H](Cc1ccccc1)NC(=O)[C@H](Cc1ccccc1)NC(=O)CNC(=O)[C@H](CCCNC(=N)N)NC(=O)[C@H](CCC(=O)O)NC(=O)CN)C(=O)N1CCC[C@H]1C(=O)N[C@@H](CCCCN)C(=O)O
- IC50 [5]: > 40000 nM

Compound: VAANIVLTV [reference compound]
- IC50: 320 nM

Compound: CC(C)C[C@H](NC(=O)[C@H](CC(=O)O)NC(=O)[C@H](CCC(=O)O)NC(=O)[C@H](C)NC(=O)[C@H](CCC(=O)O)NC(=O)[C@H](CCCNC(N)=O)NC(=O)[C@H](CCCNC(N)=O)NC(=O)[C@@H](NC(=O)[C@@H](N)CCCCN)[C@@H](C)O)C(=O)N[C@@H](CCC(N)=O)C(=O)O (H-KT[Cit][Cit]EAEDLQ-OH)
- IC50 (read-out: A*02:01 binding (IC50 nM) Modified): 22300 nM

Compound: LVEALYLVCG
- IC50 [3]: 23300 nM

Compound: CC(C)C[C@H](NC(=O)[C@H](CC(=O)O)NC(=O)[C@H](CCC(=O)O)NC(=O)[C@H](C)NC(=O)[C@H](CCC(=O)O)NC(=O)[C@H](CCCNC(N)=O)NC(=O)[C@H](CCCNC(N)=O)NC(=O)[C@@H](N)[C@@H](C)O)C(=O)N[C@@H](CCC(N)=O)C(=O)O (H-T[Cit][Cit]EAEDLQ-OH; N-terminus and C-terminus assumed)
- IC50 [1]: > 40000 nM

Compound: CC(C)C[C@H](NC(=O)[C@H](C)N)C(=O)N[C@@H](Cc1ccc(O)cc1)C(=O)N[C@@H](CC(C)C)C(=O)N[C@H](C(=O)N[C@@H](CS)C(=O)NCC(=O)N[C@@H](CCC(=O)O)C(=O)N[C@@H](CCCNC(=N)N)C(=O)NCC(=O)O)C(C)C
- IC50 [4]: 8780 nM

Compound: LLHVHHSCPL [reference compound]
- IC50: 7840 nM

Compound: CC(C)C[C@H](NC(=O)[C@H](Cc1c[nH]cn1)NC(=O)[C@H](CO)NC(=O)CNC(=O)[C@H](CS(=O)(=O)O)NC(=O)[C@H](CC(C)C)NC(=O)[C@@H](N)Cc1c[nH]cn1)C(=O)N[C@H](C(=O)N[C@@H](CCC(=O)O)C(=O)N[C@@H](C)C(=O)O)C(C)C [HLBGSHLVEA] (H-HL[Cya]GSHLVEA-OH)
- IC50: 6210 nM

Compound: ERGYFYTPK
- IC50 [1]: > 40000 nM

Compound: CC[C@H](C)[C@H](NC(=O)CNC(=O)[C@H](CCCNC(N)=O)NC(=O)[C@H](CCCCN)NC(=O)[C@H](CCC(N)=O)NC(=O)[C@@H](N)CC(C)C)C(=O)N[C@H](C(=O)N[C@@H](CCC(=O)O)C(=O)N[C@@H](CCC(N)=O)C(=O)O)C(C)C (H-LQK[Cit]GIVEQ-OH; N-terminus and C-terminus assumed)
- IC50 [1]: > 40000 nM

Compound: LVCGERGFF
- IC50 [5]: > 40000 nM

Compound: CC(C)C[C@H](N)C(=O)N[C@H](C(=O)N[C@@H](CS(=O)(=O)O)C(=O)NCC(=O)N[C@@H](CCC(=O)O)C(=O)N[C@@H](CCCNC(=N)N)C(=O)NCC(=O)N[C@@H](Cc1ccc(O)cc1)C(=O)N[C@@H](Cc1ccc(O)cc1)C(=O)O)C(C)C [LVBGERGYY] (H-LV[Cya]GERGYY-OH; N-terminus and C-terminus assumed)
- IC50 [1]: > 40000 nM

Compound: KTRREAEDLQ
- IC50 [5]: > 40000 nM

Compound: C[C@@H](O)[C@H](NC(=O)[C@H](Cc1ccc(O)cc1)NC(=O)[C@H](Cc1ccccc1)NC(=O)[C@H](Cc1ccccc1)NC(=O)CNC(=O)[C@H](CCCNC(N)=O)NC(=O)[C@H](CCC(=O)O)NC(=O)CNC(=O)[C@@H](N)CS)C(=O)O (H-CGE[Cit]GFFYT-OH; N-terminus and C-terminus assumed)
- IC50 [1]: > 40000 nM

Compound: CC(C)C[C@H](NC(=O)[C@H](C)NC(=O)[C@@H](N)CCC(=O)O)C(=O)N[C@@H](Cc1ccc(O)cc1)C(=O)N[C@@H](CC(C)C)C(=O)N[C@H](C(=O)N[C@@H](CS)C(=O)NCC(=O)N[C@@H](CCC(=O)O)C(=O)N[C@@H](CCCNC(N)=O)C(=O)O)C(C)C (H-EALYLVCGE[Cit]-OH)
- IC50: 3100 nM

Compound: GSLQKRGIV
- IC50 [3]: 32700 nM

Compound: CSCC[C@H](NC(=O)[C@@H](N)Cc1c[nH]c2ccccc12)C(=O)N[C@@H](CCCNC(N)=O)C(=O)N[C@@H](CC(C)C)C(=O)N[C@@H](CC(C)C)C(=O)N1CCC[C@H]1C(=O)N[C@@H](CC(C)C)C(=O)N[C@@H](CC(C)C)C(=O)N[C@@H](C)C(=O)O (H-WM[Cit]LLPLLA-OH)
- IC50: 1010 nM

Compound: CC(C)C[C@H](N)C(=O)N[C@H](C(=O)N[C@@H](CS)C(=O)NCC(=O)N[C@@H](CCC(=O)O)C(=O)N[C@@H](CCCNC(N)=O)C(=O)NCC(=O)N[C@@H](Cc1ccccc1)C(=O)N[C@@H](Cc1ccccc1)C(=O)N[C@@H](Cc1ccc(O)cc1)C(=O)O)C(C)C (H-LVCGE[Cit]GFFY-OH; N-terminus and C-terminus assumed)
- IC50 [1]: > 40000 nM

Compound: PKTRREAEDL
- IC50 [5]: > 40000 nM

Compound: C[C@@H](O)[C@H](NC(=O)[C@H](CCCCN)NC(=O)[C@@H]1CCCN1C(=O)[C@@H](NC(=O)[C@H](Cc1ccc(O)cc1)NC(=O)[C@@H](N)Cc1ccccc1)[C@@H](C)O)C(=O)N[C@@H](CCCNC(N)=O)C(=O)N[C@@H](CCCNC(N)=O)C(=O)N[C@@H](CCC(=O)O)C(=O)O (H-FYTPKT[Cit][Cit]E-OH; N-terminus and C-terminus assumed)
- IC50 [1]: > 40000 nM

Compound: ALEGSLQKRG
- IC50 [5]: > 40000 nM

Compound: CGERGFFYT
- IC50 [5]: > 40000 nM

Compound: EGSLQKRGI
- IC50 [5]: > 40000 nM

Compound: REAEDLQVG
- IC50 [5]: > 40000 nM

Results, then the compound that gave them:

- IC50 [1]: > 40000 nM
Compound: CC(C)C[C@H](NC(=O)[C@H](Cc1c[nH]cn1)NC(=O)[C@H](CCC(N)=O)NC(=O)[C@H](CC(N)=O)NC(=O)[C@@H](N)C(C)C)C(=O)N[C@@H](CS(=O)(=O)O)C(=O)NCC(=O)N[C@@H](CO)C(=O)N[C@@H](Cc1c[nH]cn1)C(=O)O [VNQHLBGSH] (H-VNQHL[Cya]GSH-OH; N-terminus and C-terminus assumed)

- IC50 [2]: 764 nM
Compound: NLLGRFELI [reference compound]

- IC50 [4]: 6740 nM
Compound: YLVCGERGF

- IC50 [2]: 76 nM
Compound: ALGDLFQSI [reference compound]

- IC50 [3]: 5950 nM
Compound: SLQKRGIVE [SLQKRGIVE]

- IC50 [2]: 91 nM
Compound: RLLCALTSL [reference compound]

- IC50 [2]: 444 nM
Compound: LLPPLLEHL [reference compound]

- IC50 (post-translationally modified insulin-derived peptide, radiolabeled ligand competition, purified MHC, two-day incubation, three or more independent experiments, read-out: A*02:01 binding, Modified): 3240 nM
Compound: CC(C)C[C@H](NC(=O)[C@@H](N)Cc1ccc(O)cc1)C(=O)N[C@H](C(=O)N[C@@H](CS(=O)(=O)O)C(=O)NCC(=O)N[C@@H](CCC(=O)O)C(=O)N[C@@H](CCCNC(=N)N)C(=O)NCC(=O)N[C@@H](Cc1ccc(O)cc1)C(=O)O)C(C)C [YLVBGERGY] (H-YLV[Cya]GERGY-OH)

- IC50 [2]: 1.1 nM
Compound: FLFAVGFYL [reference compound]

- IC50 [2]: 1.8 nM
Compound: NLLGRFELIGI [reference compound]

- IC50 [1]: > 40000 nM
Compound: CC(C)C[C@H](NC(=O)[C@H](Cc1c[nH]cn1)NC(=O)CC[C@H](N)C(=O)O)C(=O)N[C@@H](CS)C(=O)NCC(=O)N[C@@H](CO)C(=O)N[C@@H](Cc1c[nH]cn1)C(=O)N[C@@H](CC(C)C)C(=O)N[C@H](C(=O)O)C(C)C [ZHLCGSHLV] (γGlu-HLCGSHLV-OH; N-terminus and C-terminus assumed)

- IC50 [1]: > 40000 nM
Compound: RGYFYTPKT

- IC50 [2]: 101 nM
Compound: SLSPLQAEL [reference compound]

- IC50 [5]: > 40000 nM
Compound: TPKTRREAED [TPKTRREAED]

- IC50 [2]: 219 nM
Compound: GIPPAPHGV [reference compound]

- IC50 [2]: 7450 nM
Compound: CC[C@H](C)[C@H](NC(=O)[C@H](CO)NC(=O)[C@@H](NC(=O)[C@H](CS)NC(=O)[C@H](CS)NC(=O)[C@H](CCC(N)=O)NC(=O)[C@H](CCC(=O)O)NC(=O)[C@@H](NC(=O)[C@@H](NC(=O)CN)[C@@H](C)CC)C(C)C)[C@@H](C)O)C(=O)O [reference compound] (H-GIVEQCCTSI-OH)

- IC50 [2]: 7020 nM
Compound: FIQVYEVERA [reference compound]

- IC50 [2]: 8230 nM
Compound: CC(C)C[C@H](NC(=O)[C@@H](N)CCCNC(=N)N)C(=O)N[C@@H](CCCNC(=N)N)C(=O)N1CCC[C@H]1C(=O)N[C@@H](CC(C)C)C(=O)N[C@@H](CS)C(=O)N[C@@H](CS)C(=O)N[C@H](C(=O)N[C@@H](C)C(=O)O)[C@@H](C)O [reference compound] (H-RLRPLCCTA-OH)

- IC50 [2]: 2310 nM
Compound: VMNILLQYVV [reference compound]

- IC50 [2]: 637 nM
Compound: ELAEYLYNI [reference compound]

- IC50 [2]: 16 nM
Compound: FLLSLFSLWL [reference compound]

- IC50 [2]: 1010 nM
Compound: ALWGPDPAAA [reference compound]

- IC50 [2]: 216 nM
Compound: HIAGSLAVV [reference compound]

- IC50 [5]: > 40000 nM
Compound: TPKTRREAE

- IC50 [2]: 29 nM
Compound: ALARGAGTVPL [reference compound]

- IC50 [3]: 257 nM
Compound: SHLVEALYL

- IC50 [5]: > 40000 nM
Compound: YTPKTRREA

- IC50 [2]: 9040 nM
Compound: IQATVMIIV [reference compound]

- IC50 [2]: 3690 nM
Compound: SLAAGVKLL [reference compound]

- IC50 [5]: > 40000 nM
Compound: VCGERGFFY

- IC50 [2]: 4260 nM
Compound: HLSYHRLLPL [reference compound]

- IC50 [2]: 9.1 nM
Compound: SLASLLPHV [reference compound]

- IC50 [2]: 4.2 nM
Compound: WLLPLWAAL [WLLPLWAAL, reference compound]
